# Assay results as given in article PMC12203428, “Discovery of Clonixeril as a Sub-Femtomolar Modulator of the Human STING Receptor” (ACS Central Science, 2025).
# Read-outs that look alike come from different tables or passages of the source.
# What was measured:
# [1] = tested on: hSTING WT pathway (THP1 Dual KI-hSTING-R232 cells, IRF3 luciferase reporter); test: THP-1 IRF3 luciferase inhibition assay with diABZI3 as activator; type: cell-based, human
# Excerpt: To validate our initial observations that CXL has extraordinary potency for a small molecule antagonist, we extended our THP-1 cell luciferase reporter experiment by using diABZI3 as an agonist and using BBCl-amidine (a previously reported STING antagonist) as an antagonist control. , Furthermore, because the results were so unprecedented, we conducted these experiments in a different laboratory (U. Mass Chan. vs Univ. So. FL) and with different individuals performing the experiments.
# The cells were grown in RPMI 1640, 2 mM L-glutamine, 25 mM HEPES, 10% heat-inactivated fetal bovine serum, 100 μg/mL Normocin, and Pen-Strep (100 U/mL–100 μg/ mL). For selection, the cells were passaged with and without the addition of antibiotics (10 μg/mL Blasticidin and 100 μg/mL Zeocin) to the growth medium every other passage. […] The cells were counted in a cell counter to obtain a cell density of 1 × 10^6 cells/mL of the test media. […] QUANTI-Luc (InvivoGen) reagent was then diluted in 30 mL of water, 75 μL was added to each well, and luminescence was read immediately (PerkinElmer Envision 2105). The data were normalized to the DMSO only controls (without diABZI3 or 2′,3′-cGAMP), and percentage activation was calculated based on the diABZI3 or 2′,3′-cGAMP only control. […]
# SUMO-hSTING CTD = SUMO-hSTING CTD (Homo sapiens, UniProt Q86WV6, H232R); test: Isothermal titration calorimetry; type: binding; parameters: human STING (amino acid 155–343) was synthesized and subcloned into pET28a vector; made in house; host or cells: E. coli BL21(DE3)
# Excerpt: In order to further explore the interaction between CXL and hSTING CTD, we employed Isothermal calorimetry (ITC) to measure the heat evolved accompanying CXL’s effect on SUMO-hSTING^WT CTD. […] In Figure A, we show the ITC data we obtained. […]. […] In Figure B, we also find that the binding isotherm is far from steady state or equilibrium, and thus, we could not obtain reliable thermodynamic parameters. Nonetheless, a significant amount of heat was released in the process of CXL interacting with the hSTING CTD. On the other hand, we were most interested in ITC measurements taken at femtomolar concentrations, given the biophysical experiments and in cellulo studies already described. Initial experiments treating the hSTING CTD with femtomolar concentrations of CXL were unsuccessful, likely due to the insensitivity of the instrument. […]. MicroCal ITC200 instrument (Malvern Pananalytical) was used to assess STING and CXL interactions. Both recombinantly purified STING domains (residues 155–343) containing a SUMO tag and CXL were buffer-exchanged and made in the same buffer composition, respectively, to avoid buffer mismatch. The same buffer cocktail was used in all ITC experiments, containing 25 mM HEPES (pH, 7.4), 150 mM NaCl, 5% glycerol, 0.5 mM TCEP, and 5% DMSO. STING protein from −80 °C aliquots was spun down at 12,000 RPM for 5–10 min before each run to remove any aggregates, diluted into the ITC buffer above (either as 40 μM STING alone or as 40 μM STING plus 20 μM 2,3-cGAMP), and loaded into the cell. CXL at various concentrations for different experiments was loaded into the syringe (Hamilton). For the control and reference, an ITC buffer devoid of CXL was used. ITC experiments were conducted at 25 °C using an initial 0.4 μL injection and 19 subsequent injections of 2 μL each at 150 s intervals. Heat of dilution (differential power) of the 19 injections resulting from the binding event was fitted into the nonlinear least-squares equation incorporated in the MicroCal ITC200 analysis software. The K D and other thermodynamic parameters were derived from curve fitting using MicroCal software.
# [2] = tested on: hSTING WT pathway (THP1 Dual KI-hSTING-R232 cells, IRF3 luciferase reporter); test: THP-1 IRF3 luciferase reporter assay, clonixeril as agonist
# Description: 2 Luciferase assay utilizing monocytic leukemia (THP-1) cells. Cells (Invivogen THP1 Dual KI-hSTING-R232; wild type) were analyzed for activation of the hSTING WT pathway via an IRF3 luciferase reporter. Luminescence is reported in relative luminescence units (RLU). Error bars are SEM A. Dose–response of THP-1 cells treated with various concentrations of clonixeril (CXL); N = 6.
# A 10 mM stock solution of CXL in 100% DMSO was diluted with ultrapure Milli Q water to make 3, 5, 10, 15, 20, 30, 40, 50 μM samples. The vehicle control contained blank cell medium treated with 0.1% DMSO. 20 μL sample/well of CXL or dilute DMSO (vehicle control) was added to a white, 300 μL, sterile 96 well plate. […] All samples contained a final DMSO concentration of 0.1%. […] The expression of Lucia luciferase was quantified by measuring the luminescence and evaluated in triplicate. Data are average luminescence changes shown as relative luminescence after subtraction of the background luminescence of vehicle-treated cells. A Glowmax luminometer with an injector was used for the measurement of luminescence in the luciferase assay. After the 10h incubation period, 20 μL/well of cell culture supernatant was transferred to a fresh well plate. A single injector added 50 μL of detection reagent per well, and immediately measured luminescence using a 4s incubation time integrated over 1 s.
# [3] = target: T1, hSTING CTD (STING R232 variant) (Homo sapiens, UniProt Q86WV6, H232R); test: Microscale thermophoresis; type: binding; settings: Log inhibitor versus response fit
# T1 construct: 6X-His tagged hSTING^WT, R232 variant, CTD protein was purchased; purchased Invivogen (USA) or Cayman Chemicals (USA)
# Description: Small molecule affinities at subpicomolar concentrations are typically difficult to determine by MST due to the inability of the detector to measure differential movement of proteins when largely disproportionate ratios of protein to ligand are involved. […] Generally, an IC50 correlates well with a K D when a small molecule competes for binding with a natural substrate for a target protein.
# The resulting mixture was centrifuged at 12,000 x RPM 10 min prior to use. […] The samples were run again at 30- and 45 min. Detection of the protein was performed using the blue detection channel with excitation power set to 100% and MST set to high allowing 3 s prior to MST on to check for initial fluorescence differences, 35 s for thermophoresis, and 3 s for regeneration after MST off. Analysis was performed using M.O. Affinity Analysis Software with difference between initial fluorescence measured in the first 5 s as compared with thermophoresis at 30 s at 16 different analyte concentrations ranging from 100 μM to 100 zM and exported into Graphpad Prism v.8 using a Log inhibitor versus response for parameter fit.
# Chain of SUMO-hSTING CTD (Q86WV6 155-343 H232R): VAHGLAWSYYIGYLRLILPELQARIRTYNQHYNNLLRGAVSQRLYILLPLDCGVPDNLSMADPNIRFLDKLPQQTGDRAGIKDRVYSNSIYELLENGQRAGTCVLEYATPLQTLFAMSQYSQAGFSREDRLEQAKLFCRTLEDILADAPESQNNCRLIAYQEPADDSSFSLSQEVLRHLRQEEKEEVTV
# T1 sequence (Q86WV6 153-340 H232R): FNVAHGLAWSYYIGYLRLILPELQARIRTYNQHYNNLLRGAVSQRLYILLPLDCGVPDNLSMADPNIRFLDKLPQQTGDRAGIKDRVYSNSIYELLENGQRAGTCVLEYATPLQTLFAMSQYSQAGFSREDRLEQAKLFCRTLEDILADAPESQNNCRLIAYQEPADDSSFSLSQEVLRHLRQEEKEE
compound,measurement,setting,value
"Cc1c(Cl)cccc1Nc1ncccc1C(=O)OCC(O)CO (stereo not shown) [CXL, clonixeril]",Response to diABZI3 with CXL 100 nM to 100 aM,[1]; 50 nM diABZI3,inverse dose response
same,Effect of higher concentrations of CXL on diABZI3 signal,"[1]; 50 nM diABZI3, Figure 2C",enhancement of the diABZI3 signal
same,Heat produced,SUMO-hSTING CTD; 400 μM CXL into 40 μM hSTING CTD,essentially the same amount of heat as c-diGMP
same,Heat released per injection,"SUMO-hSTING CTD; 400 μM clonixeril + 20 μM 2′,3′-cGAMP, reviewer's reading of Fig 6C",13 kcal/mol
same,Heat evolution,"SUMO-hSTING CTD; 1.5 fM CXL into 40 μM SUMO-hSTING CTD + 20 μM 2′,3′-cGAMP",significant evolution of heat
same,Heat released per injection,"SUMO-hSTING CTD; 1.5 fM clonixeril into 40 μM hSTING CTD + 20 μM 2′,3′-cGAMP, first 15 injections",-7 to -2 kcal/mol
same,EC50,"[2]; Homo sapiens, THP1-Dual KI-hSTING-R232, read-out: EC50 (agonist activity), CXL alone, THP-1 cells, Figure 2A",~19 µM
same,Agonist activity in luciferase reporter assay,[2]; compound alone,weak agonist activity
same,EC50,"[2]; read-out: EC50 (agonist activity), CXL alone, THP-1 cells, Figure 2A",20 µM
same,Hillslope (MST fit),[3],−1.669
